Assay results from patent US11661399B2, “Methods and compositions for preventing degradation of dimethyl trisulfide” (priority 2018, dated 2023).

How the values were obtained:
[1] = DMTS degradation over 14 days at 54° C. (gas chromatograph, Day 0 vs Day 14); assay type: physicochemical; conditions: water + MDEA, pH lowered to 2, two weeks at 54° C.
Experimental: (§1) EPA accelerated stability guidelines call for storage of compositions at 54° C. for two weeks. This is considered to be the equivalent to storing compositions for one year at room temperature. These conditions were applied to the following studies to ensure that DMTS can be formulated in compliance with EPA guidelines.
In this example, various concentrations of DMTS in water, ethanol (EtOH), and propylene glycol (PG), with and without MDEA, were prepared and tested for degradation. The pH was adjusted to 2, 7, or 12+/−0.5 with sodium hydroxide or hydrochloric acid. The DMTS concentration was measured by gas chromatograph on Day 0 and Day 14 and the percent degradation calculated from those values. The formulas were capped and stored at 54° C. for two weeks.

[2] = Accelerated stability storage: DMTS recovery over time in solution; assay type: physicochemical; conditions: for DMTS degraded: 14 days at 54° C.
Experimental: as §1
120 ppm DMTS only is compared to 120 ppm DMTS with 420 ppm MDEA. Using the accelerated conditions described above, DMTS in water was still observed to be degrading over time.
Various conditions were modified to improve the overall stability of DMTS in solution. First, the pH was lowered by buffering the solution. It was predicted that a lower pH might prevent the catalyzation of DMTS breakdown. The solution was buffered to a pH of 6 and compared to a control. 32 ppm DMTS was stored in glass at 40° C. for 7 days, then stored at 54° C. for an additional 15 days.
DMDS was added to the DMTS in this example. It was hypothesized that if the breakdown pathway of DMTS to DMDS exists in equilibrium, additional DMDS would stabilize the breakdown pathway. DMDS was added to formulas containing DMTS only and DMTS with MDEA.
It was hypothesized that propylene glycol (PG) could have a similar effect. Samples were prepared with 8 ppm and 4 ppm DMTS in water as controls. Experimental samples included 8 ppm DMTS with 1% PG or 10% PG. A sample was also prepared in an HDPE container that was not fluorinated.
This example examined the effects of fluorination of HDPE containers on the stability of DMTS. Stability of DMTS was recorded for storage at 54° C. over the course of 14 days. Glass containers were used as a control. HDPE containers were tested having no fluorination (F0), Level 3 fluorination (F3), and Level 5 fluorination (F5). Samples of DMTS were prepared to a dilution of 8 ppm DMTS in water with 10% PG.
Given the improvements seen with 10% PG used as solvent, higher concentrations of PG were tested. 0.28% DMTS in 100% PG was tested for stability over two weeks at 54° C. Storage in glass containers was compared to HDPE containers with Level 3 fluorination.
Other solvents were tested without dilution with water. Samples of 0.03% DMTS were prepared in 100% solvent. The solvents tested were ethanol in a glass container, PG in a glass container, PG in a non-fluorinated HDPE container, and glycerol in a glass container.
In this example, 0.03 wt-% (300 ppm) DMTS was dissolved into solvent consisting of 100% ethanol (EtOH) or 100% propylene glycol (PG). This study is very similar to Example 7. Recovery of DMTS was recorded over the course of 14 days. The DMTS solutions were stored in the accelerated conditions of 54° C. Less than 10% DMTS was degraded over the course of 14 days for both EtOH and PG.
In this example, a lower concentration of DMTS was used to produce a use composition. 32 ppm DMTS was dissolved in either a 100% water solution or a combination of 10% PG and 90% water. The same accelerated conditions were used for 14 days. Over 70% of DMTS was recovered with water as the only solvent. However, using a 10% PG solution in water improved DMTS stability, providing greater than 80% recovery.
Even lower concentrations of DMTS were examined to determine if further dilution of the concentrate affects stability of DMTS. Solutions including 8 ppm DMTS were prepared. DMTS was dissolved in water, a solution of 1 wt-% PG in water, and a solution 10 wt-% PG in water. […] The reduced quantity of DMTS did have a slight negative effect on stability.
Finally, solutions including 1 ppm DMTS were examined to determine if use compositions including small amounts of DMTS can remain stable over the course of the two week testing period at 54° C. […] Hard water had the greatest negative effect on DMTS stability.

**Q.** For `CSSSC` [DMTS, dimethyl trisulfide], which DMTS degraded [1] is on record?
**A.** 20%

**Q.** And the “DMTS remaining in solution” value ([2]; 1 ppm DMTS in hard water, day 14, 54° C.)?
**A.** no DMTS remained

**Q.** What about the “DMTS stability (in words)” value ([2]; 8 ppm DMTS in water with 10% PG, HDPE Level 5 fluorination (F5), 54° C., 14 days) of the same compound?
**A.** best results which were similar to the glass containers

**Q.** What about the “DMTS degradation (in words)” value ([2]; 8 ppm DMTS in water with 10% PG, non-fluorinated HDPE (F0), 54° C., 14 days) of the same compound?
**A.** fastest rates of DMTS degradation

**Q.** What about the “DMTS stability (in words)” value ([2]; 8 ppm DMTS with 1% PG or 10% PG vs water controls) of the same compound?
**A.** Some improvement

**Q.** What about the DMTS recovered ([2]; 32 ppm DMTS in 100% water, 14 days accelerated conditions) of the same compound?
**A.** Over 70%

**Q.** What about the “DMTS degradation (in words)” value ([2]; 32 ppm DMTS in solution with ethanol, glass, 40° C. 7 days then 54° C. 15 days) of the same compound?
**A.** least degradation

**Q.** What about the “DMTS stability (in words)” value ([2]; 32 ppm DMTS, N2 blanket and soft water samples, glass, 40° C. 7 days then 54° C. 15 days) of the same compound?
**A.** least stable conditions

**Q.** And the “DMTS breakdown (in words)” value ([2]; 32 ppm DMTS, pH 6 buffer, glass, 40° C. 7 days then 54° C. 15 days)?
**A.** faster breakdown than the control

**Q.** What about the “DMTS degradation over time (in words)” value ([2]; 120 ppm DMTS only in water vs 120 ppm DMTS with 420 ppm MDEA, accelerated conditions) of the same compound?
**A.** degradation was slowed significantly

**Q.** And the DMTS degraded ([2]; 300 ppm DMTS in 100% EtOH)?
**A.** Less than 10%

**Q.** What about the DMTS degraded ([2]; 300 ppm DMTS in 100% PG) of the same compound?
**A.** Less than 10%

**Q.** And the “DMTS breakdown (in words)” value ([2]; DMDS added to DMTS only and DMTS with MDEA formulas)?
**A.** did not slow down the breakdown of DMTS

**Q.** What about the “DMTS degradation (in words)” value ([2]; sample in non-fluorinated HDPE container, 54° C.) of the same compound?
**A.** significantly faster degradation
